Source: article PMC12749127 (Scientific Reports, 2025)

What was measured:
[1] = test system: DENV-2; assay: IMPA1 silencing using siRNA, DENV-2 virus titer in imHC cells; format: cell-based; conditions: Dengue virus, DENV2, read-out: decrease of inhibitory effect of ebselen in si_IMPA1-silenced cells
[2] = test system: myo-inositol levels; assay: Cellular myo-inositol levels; format: cell-based; conditions: 30 mM LiCl or 25 µM ebselen
[3] = target: T1, recombinant human inositol monophosphatase 1 (IMPA1) (Homo sapiens, UniProt P29218); assay: In vitro enzymatic assay of IMPA activity; format: biochemical
T1 sequence (P29218 1-277): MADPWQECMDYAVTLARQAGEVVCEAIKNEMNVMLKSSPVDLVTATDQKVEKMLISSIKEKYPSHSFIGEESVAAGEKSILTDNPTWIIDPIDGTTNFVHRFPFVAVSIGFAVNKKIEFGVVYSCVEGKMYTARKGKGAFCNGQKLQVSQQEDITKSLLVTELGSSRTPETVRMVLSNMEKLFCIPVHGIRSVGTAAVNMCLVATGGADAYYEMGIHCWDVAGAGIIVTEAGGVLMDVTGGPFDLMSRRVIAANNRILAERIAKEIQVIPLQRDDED

[4] = test system: PI(4)P and ZIKV-NS1; assay: Immunofluorescence of PI; format: cell-based; conditions: ZIKV-infected imHC cells, MOI 1, 48 hpi, ebselen treatment
[5] = target: recombinant bovine IMPA; conditions: read-out: inhibition constant (Ki); cited from earlier work
[6] = target: recombinant human IMPA; conditions: read-out: inhibition constant (Ki); cited from earlier work
[7] = test system: IMPA; conditions: in vitro assays; cited from earlier work
[8] = test system: PI(4)P; assay: Immunofluorescence of PI; format: cell-based, human; conditions: imHC cells, 24 hours of treatment

## O=c1c2ccccc2[se]n1-c1ccccc1 [Ebselen]
[1]
  inhibition at 20 µM: ~16%
[2]
  myo-inositol levels vs untreated control (in words): significant reduction
[3]
  IC50: 950 nM
[4]
  PI(4)P levels (in words): reduction
  ZIKV-NS1 protein expression (in words): reduction

## CC(Oc1ccc(O)cc1)(P(=O)(O)O)P(=O)(O)O [L-690,330]
[5]
  Ki: 190 nM
[6]
  Ki: 270 nM
[7]
  potency relative to lithium (in words): approximately a thousand-fold greater potency than lithium

## [Cl-].[Li+] [LiCl]
[2]
  myo-inositol levels vs untreated control (in words): significant reduction

## O[C@H]1[C@H](O)[C@@H](O)[C@H](O)[C@@H](O)[C@H]1O [inositol]
[8]
  PI(4)P levels following the addition of inositol (in words): increased levels
